From patent publication EP4603105A1, “PHARMACEUTICAL COMPOSITION CONTAINING CYCLIC COMPOUND HAVING SELECTIVE KRAS INHIBITORY EFFECT AGAINST HRAS AND NRAS” (CHUGAI SEIYAKU KABUSHIKI KAISHA, priority 2022, dated 2024)
Where a SMILES comes first, the peptide text is derived from it. Bridges are numbered along the chain shown (N, C = ends). [ ]: non-standard residue; d: D form. The star is where a group is joined. hPhe(3,5-F2-4-CF3) = N[C@@H](CCc1cc(F)c(C(F)(F)F)c(F)c1)C(=O)O; NPrPhe(4-CF3) = CCCN[C@@H](Cc1ccc(C(F)(F)F)cc1)C(=O)O; NMeAbu(4,4,4-F3) = CN[C@@H](CC(F)(F)F)C(=O)O; NMeGly(cPent) = CN[C@H](C(=O)O)C1CCCC1; NMeD = CN[C@@H](CC(=O)O)C(=O)O; NMeL = CN[C@@H](CC(C)C)C(=O)O; αMeS = C[C@](N)(CO)C(=O)O; Ac5c = NC1(C(=O)O)CCCC1; Sar = CNCC(=O)O; tBu = CC(C)(C)*

Columns and labels:
[1] = target: GDP-bound NRAS wild-type protein (Homo sapiens, UniProt P01111); assay: Binding to NRAS by surface plasmon resonance (SPR), KD and KD ratio to KRAS
Outline: (§1)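 SPR, 30°C: Avi-biotin RAS·GDP captured via Biotin CAPture (~100–300 RU); running buffer HBS pH 7.4, 1 mM DTT, 10 mM MgCl2, 0.01% Tween 20, 10 µM GDP, 4% DMSO. Single-cycle kinetics, 100 µL/min, 75 s injections; 1:1 model → KD.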

HRAS wild-type protein = HRAS wild-type protein (Homo sapiens, UniProt P01112); assay: Binding to HRAS by surface plasmon resonance (SPR), KD and KD ratio to KRAS
Outline: as §1

[2] = tested on: human lung cancer strain NCI-H441; assay type: cell-based
Outline: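 Proliferation was scored by […] measured after the reagent was added to cultures kept at 37°C in 5% carbon dioxide.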

[3] = ratio of KD for GDP-bound NRAS wild-type protein to KD for KRAS
[4] = ratio of KD for HRAS wild-type protein to KD for KRAS
[5] = ratio of the KD value with respect to GDP-bound NRAS wild-type protein to the KD value with respect to KRAS
[6] = ratio of the KD value with respect to HRAS wild-type protein to the KD value with respect to KRAS

HRAS wild-type protein, sequence (P01112 whole entry): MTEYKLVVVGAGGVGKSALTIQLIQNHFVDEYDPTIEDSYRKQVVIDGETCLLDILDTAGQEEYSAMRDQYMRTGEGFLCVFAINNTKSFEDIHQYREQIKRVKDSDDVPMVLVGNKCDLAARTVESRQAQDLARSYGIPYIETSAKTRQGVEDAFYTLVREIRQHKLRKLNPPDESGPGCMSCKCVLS
GDP-bound NRAS wild-type protein, sequence (P01111 whole entry): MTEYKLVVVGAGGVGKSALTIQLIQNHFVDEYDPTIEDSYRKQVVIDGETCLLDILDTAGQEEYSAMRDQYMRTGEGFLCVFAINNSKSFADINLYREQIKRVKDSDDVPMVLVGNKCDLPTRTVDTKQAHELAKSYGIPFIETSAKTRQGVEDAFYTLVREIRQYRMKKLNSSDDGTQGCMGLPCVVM

| Compound | IC50 [2] [nM] | NRAS /KRAS [1, 3] | HRAS /KRAS (HRAS wild-type protein; [4]) | NRAS /KRAS [1, 5] | HRAS /KRAS (HRAS wild-type protein; [6]) |
| --- | --- | --- | --- | --- | --- |
| CCO[C@@H]1C[C@H]2C(=O)NC3(CC(C)(C)C3)C(=O)N(C)[C@@H](C3CCCC3)C(=O)N(C)[C@H](C(=O)N(C)C)CC(=O)N(C)[C@@H](CC(C)C)C(=O)N[C@@H]([C@@H](C)CC)C(=O)N(C)CC(=O)N(C)[C@H]3C/C=C\CCN(C3=O)[C@@H](Cc3ccc(C)cc3F)C(=O)N(C)CC(=O)N[C@@H](CCc3ccc(C(F)(F)F)c(OC)c3)C(=O)N2C1 [PP2688] | 6.9 | A (a compound having 10 or more and less than 20 is denoted as A) | B (a compound having 3 or more and less than 10 is denoted as B) | – | – |
| CCC[C@H]1C(=O)N[C@@H]([C@@H](C)CC)C(=O)N2CCC[C@H]2C(=O)N(C)[C@H]2C/C=C\CCN(C2=O)[C@@H](Cc2ccc(C)cc2)C(=O)N(C)CC(=O)N[C@@H](CCc2ccc(C(F)(F)F)c(OC)c2)C(=O)N2C[C@H](OCC)C[C@H]2C(=O)N(C)C2(CCC2)C(=O)N(C)[C@@H](C(CC)CC)C(=O)N(C)[C@H](C(=O)N(C)C)CC(=O)N1C [PP2329] | 6.5 | – | – | A (a compound having 10 or more and less than 20 is denoted as A) | A (a compound having 10 or more and less than 20 is denoted as A) |
| CCC[C@H]1C(=O)N[C@@H]([C@@H](C)CC)C(=O)N(C2CC2)CC(=O)N(C)[C@H]2C/C=C\CCN(C2=O)[C@@H](Cc2ccc(C)cc2)C(=O)N(C)CC(=O)N[C@@H](CCc2cc(C)c(C(F)F)c(F)c2)C(=O)N2C[C@H](OCC)C[C@H]2C(=O)NC2(CC(C)(C)C2)C(=O)N(C)[C@@H](C2CCCC2)C(=O)N(C)[C@H](C(=O)N(C)C)CC(=O)N1C [PP2874] | 44 | A (a compound having 10 or more and less than 20 is denoted as A) | A (a compound having 10 or more and less than 20 is denoted as A) | – | – |
| CCCN1C(=O)CN(C)C(=O)CN(C)C(=O)[C@H]([C@@H](C)CC)NC(=O)[C@H](CC(C)C)N(C)C(=O)C[C@@H](C(=O)N(C)C)N(C)C(=O)[C@H](CC(F)(F)F)N(C)C(=O)C2(CCCC2)NC(=O)[C@@H]2CCCN2C(=O)[C@H](CCc2cc(F)c(C(F)(F)F)c(F)c2)NC(=O)CN(C)C(=O)[C@@H]1Cc1ccc(C(F)(F)F)cc1 [PP0746] ([NMeL]I[Sar][Sar][NPrPhe(4-CF3)][Sar][hPhe(3,5-F2-4-CF3)]P[Ac5c][NMeAbu(4,4,4-F3)][NMeD]-NMe2; lactam N-11) | 35.4 | – | – | B (a compound having 3 or more and less than 10 is denoted as B) | C (A compound having a KD ratio of 0.1 or more and less than 3 is denoted as C) |
| CCC[C@@H]1C[C@H]2C(=O)NC3(CCC3)C(=O)N(C)[C@@H](C3CCCC3)C(=O)N(C)[C@H](C(=O)N(C)C)CC(=O)N(C)[C@@H](CC)C(=O)N[C@@H]([C@@H](C)CC)C(=O)N(C)CC(=O)N(C)[C@H]3C/C=C\CCN(C3=O)[C@@H](Cc3ccc(C)cc3)C(=O)N(C)CC(=O)N[C@@H](CCc3cc(F)c(C(F)(F)F)c(F)c3)C(=O)N2C1 [PP2233] | 27.6 | – | – | A (a compound having 10 or more and less than 20 is denoted as A) | A (a compound having 10 or more and less than 20 is denoted as A) |
| C#CC[C@H]1C(=O)N[C@@H]([C@@H](C)CC)C(=O)N(C)CC(=O)N(C)[C@H]2C/C=C\CCN(C2=O)[C@@H](Cc2ccc(C(F)(F)F)cc2)C(=O)N(C)CC(=O)N[C@@H](CCc2ccc(C(F)(F)F)c(Cl)c2)C(=O)N2CC3(CC3)C[C@H]2C(=O)NC2(CC(C)(C)C2)C(=O)N(C)[C@@H](C2CCCC2)C(=O)N(C)[C@H](C(=O)N(C)C)CC(=O)N1C [PP2980] | 11.7 | A (a compound having 10 or more and less than 20 is denoted as A) | B (a compound having 3 or more and less than 10 is denoted as B) | – | – |
| CCCN1C(=O)CN(C)C(=O)CN(C)C(=O)[C@H]([C@@H](C)CC)NC(=O)[C@H](CC(C)C)N(C)C(=O)C[C@@H](C(=O)N(C)C)N(C)C(=O)[C@H](C2CCCC2)N(C)C(=O)[C@](C)(COC(C)(C)C)NC(=O)[C@@H]2CCCN2C(=O)[C@H](CCc2cc(F)c(C(F)(F)F)c(F)c2)NC(=O)CN(C)C(=O)[C@@H]1Cc1ccc(C(F)(F)F)cc1 [PP0743] ([NMeL]I[Sar][Sar][NPrPhe(4-CF3)][Sar][hPhe(3,5-F2-4-CF3)]P[αMeS](tBu)[NMeGly(cPent)][NMeD]-NMe2; lactam N-11) | 76.3 | – | – | B (a compound having 3 or more and less than 10 is denoted as B) | C (A compound having a KD ratio of 0.1 or more and less than 3 is denoted as C) |
| CCO[C@@H]1C[C@H]2C(=O)NC3(CC(C)(C)C3)C(=O)N(C)[C@@H](C3CCCC3)C(=O)N(C)[C@H](C(=O)N(C)CC)CC(=O)N(C)[C@H]3CCCCCc4ccc(cc4)C[C@@H](C(=O)N(C)CC(=O)N[C@@H](CCc4ccc(C(F)(F)F)c(OC)c4)C(=O)N2C1)N1CC/C=C\C[C@@H](C1=O)N(C)C(=O)CN(C)C(=O)[C@H]([C@@H](C)CC)NC3=O [PP2259] | 6.5 | – | – | A (a compound having 10 or more and less than 20 is denoted as A) | B (a compound having 3 or more and less than 10 is denoted as B) |

Further lines, with some results ahead:

| IC50 [2] [nM] | Compound | NRAS /KRAS [1, 3] | HRAS /KRAS (HRAS wild-type protein; [4]) | NRAS /KRAS [1, 5] | HRAS /KRAS (HRAS wild-type protein; [6]) |
| --- | --- | --- | --- | --- | --- |
| 10.7 | CCO[C@@H]1C[C@H]2C(=O)NC3(CCC3)C(=O)N(C)[C@@H](C3CCCC3)C(=O)N(C)[C@H](C(=O)N3CCOCC3)CC(=O)N(C)[C@@H](CC(C)C)C(=O)N[C@@H]([C@@H](C)CC)C(=O)N(C)CC(=O)N(C)[C@H]3C[C@@H](C)CCN(C3=O)[C@@H](Cc3ccc(C(F)(F)F)cc3)C(=O)N(C)CC(=O)N[C@@H](CCc3cc(F)c(C(F)(F)F)c(F)c3)C(=O)N2C1 [PP1025] | C (A compound having a KD ratio of 0.1 or more and less than 3 is denoted as C) | B (a compound having 3 or more and less than 10 is denoted as B) | – | – |
| 131 | CC[C@H](C)[C@@H]1NC(=O)[C@H](CC)N(C)C(=O)C[C@@H](C(=O)N(C)C)N(CC)C(=O)[C@H](C2CCCC2)N(C)C(=O)C2(CCC2)NC(=O)[C@@H]2CCN2C(=O)[C@H](CCc2cc(F)c(C(F)(F)F)c(F)c2)NC(=O)CN(C)C(=O)[C@H](Cc2ccc(C(F)(F)F)cc2)N2CCCC[C@@H](C2=O)N(C)C(=O)CN(C)C1=O [PP0660] | – | – | B (a compound having 3 or more and less than 10 is denoted as B) | B (a compound having 3 or more and less than 10 is denoted as B) |
| 9.8 | CCO[C@@H]1C[C@H]2C(=O)NC3(CCC3)C(=O)N(C)[C@@H](C(CC)CC)C(=O)N(C)[C@H](C(=O)N3CCOCC3)CC(=O)N(C)[C@@H](CC(C)C)C(=O)N[C@@H]([C@@H](C)CC)C(=O)N(C)CC(=O)N(C)[C@H]3CCCCN(C3=O)[C@@H](Cc3ccc(C(F)(F)F)cc3)C(=O)N(C)CC(=O)N[C@@H](CCc3cc(F)c(C(F)(F)F)c(F)c3)C(=O)N2C1 [PP0811] | B (a compound having 3 or more and less than 10 is denoted as B) | B (a compound having 3 or more and less than 10 is denoted as B) | – | – |
| 19.5 | CCO[C@@H]1C[C@H]2C(=O)NC3(CCC3)C(=O)N(C)[C@@H](C3CCCC3)C(=O)N(C)[C@H](C(=O)N(C)C)CC(=O)N(C)[C@@H](CC)C(=O)N[C@@H]([C@@H](C)CC)C(=O)NCC(=O)N(C)[C@H]3C/C=C\CCN(C3=O)[C@@H](Cc3ccc(C(F)(F)F)cc3)C(=O)N(C)CC(=O)N[C@@H](CCc3cc(F)c(C(F)(F)F)c(F)c3)C(=O)N2C1 [PP0983] | A (a compound having 10 or more and less than 20 is denoted as A) | A (a compound having 10 or more and less than 20 is denoted as A) | – | – |
| 10.3 | CC[C@H](C)[C@@H]1NC(=O)[C@H](CC)N(C)C(=O)C[C@@H](C(=O)N(C)C)N(C)C(=O)[C@H](C2CCCC2)N(C)C(=O)C2(CCC2)NC(=O)[C@@H]2CCCCN2C(=O)[C@H](CCc2cc(F)c(C(F)(F)F)c(F)c2)NC(=O)CN(C)C(=O)[C@H](Cc2ccc(C(F)(F)F)cc2)N2CCCC[C@@H](C2=O)N(C)C(=O)CN(C)C1=O [PP0658] | – | – | C (A compound having a KD ratio of 0.1 or more and less than 3 is denoted as C) | B (a compound having 3 or more and less than 10 is denoted as B) |
| 8.3 | CC[C@H](C)[C@@H]1NC(=O)[C@H](CC(C)C)N(C)C(=O)C[C@@H](C(=O)N2CCOCC2)N(C)C(=O)[C@H](C2CCCCC2)N(C)C(=O)C2(CCCC2)NC(=O)[C@@H]2CCCN2C(=O)[C@H](CCc2cc(F)c(C(F)(F)F)c(F)c2)NC(=O)CN(C)C(=O)[C@H](Cc2ccc(C(F)(F)F)cc2)N2CCCC[C@@H](C2=O)N(C)C(=O)CN(C)C1=O [PP0567] | – | – | B (a compound having 3 or more and less than 10 is denoted as B) | B (a compound having 3 or more and less than 10 is denoted as B) |
| 181 | CCO[C@@H]1C[C@H]2C(=O)NC3(CCC3)C(=O)N(C)[C@@H](C3CCCC3)C(=O)N(C)[C@H](C(=O)N3CCOCC3)CC(=O)N(C)[C@@H](Cc3ccccc3C)C(=O)N[C@@H]([C@@H](C)CC)C(=O)N(C)CC(=O)N(C)[C@H]3CCCCCN(C3=O)[C@@H](Cc3ccc(C(F)(F)F)cc3)C(=O)N(C)CC(=O)N[C@@H](CCc3cc(F)c(C(F)(F)F)c(F)c3)C(=O)N2C1 [PP0931] | A (a compound having 10 or more and less than 20 is denoted as A) | B (a compound having 3 or more and less than 10 is denoted as B) | – | – |
| 14.9 | CCO[C@@H]1C[C@H]2C(=O)NC3(CCC3)C(=O)N(C)[C@@H](C3CCCC3)C(=O)N(C)[C@H](C)CC(=O)N(C)[C@@H](CC)C(=O)N[C@@H]([C@@H](C)CC)C(=O)N(C)CC(=O)N(C)[C@H]3C/C=C\CCN(C3=O)[C@@H](Cc3ccc(C(F)(F)F)cc3)C(=O)N(C)CC(=O)N[C@@H](CCc3cc(F)c(C(F)(F)F)c(F)c3)C(=O)N2C1 [PP1095] | B (a compound having 3 or more and less than 10 is denoted as B) | B (a compound having 3 or more and less than 10 is denoted as B) | – | – |
